Assay results as given in paper doi:10.1101/2025.05.23.655736v2 (biorxiv, 2025).
pKd: −log10 of the molar value. *1 amine or outer side, *2 acyl side, *3 side chain or, on linkers, in order; H or OH if unused. Where a SMILES comes first, the peptide text is derived from it. [ ]: non-standard residue; d: D form. d(isoGln) = NC(=O)[C@@H](CCC(=O)[*:2])N[*:1]

Tests used:
[1] = target: T1, PcsBCHAP (CHAP domain of PcsB) (Streptococcus pneumoniae, UniProt A0A0H2ZQ76); assay: biochemical; settings: read-out: kd (1/s)
T1 sequence (A0A0H2ZQ76 274-392): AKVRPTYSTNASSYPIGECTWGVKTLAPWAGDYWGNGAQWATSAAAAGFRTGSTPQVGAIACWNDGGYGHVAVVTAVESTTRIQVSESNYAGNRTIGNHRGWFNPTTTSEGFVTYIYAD

[2] = target: T1, PcsBCHAP (CHAP domain of PcsB); assay: biochemical; settings: read-out: ka (1/Ms)
[3] = target: T1, PcsBCHAP (CHAP domain of PcsB); assay: SPR; format: binding

| SMILES | koff [1] | kon [2] | pKd [3] |
| --- | --- | --- | --- |
| C[C@H](N)C(=O)N[C@H](CCC(=O)N[C@@H](CCCCN)C(=O)N[C@H](C)C(=O)N[C@H](C)C(=O)O)C(=O)O [AEKADAD] | 0.036 s⁻¹ | 33300 M⁻¹ s⁻¹ | – |
| C[C@H](N)C(=O)N[C@H](CCC(=O)N[C@@H](CCCCN)C(=O)N[C@H](C)C(=O)N[C@H](C)C(=O)O)C(N)=O [AiQKADAD] (H-A[d(isoGln)]K[dA][dA]-OH) | 0.00502 s⁻¹ | 99600 M⁻¹ s⁻¹ | – |
| CC(=O)N[C@H]1C(O)O[C@H](CO)[C@@H](O)[C@@H]1O[C@H](C)C(=O)N[C@@H](C)C(=O)N[C@H](CCC(=O)N[C@@H](CCC[C@@H](N)C(=O)O)C(=O)O)C(=O)O (stereo partly shown) [M-TriDAP] | 0.00394 s⁻¹ | 6280 M⁻¹ s⁻¹ | – |
| CC(=O)N[C@H]1C(O)O[C@H](CO)[C@@H](O)[C@@H]1O[C@H](C)C(=O)N[C@@H](C)C(=O)N[C@H](CCC(=O)N[C@@H](CCCCN)C(=O)O)C(N)=O (stereo partly shown) [M-TriLYS] | 0.0117 s⁻¹ | 98200 M⁻¹ s⁻¹ | – |
| N[C@H](CCC(=O)N[C@H](CCC[C@H](N)C(=O)O)C(=O)O)C(=O)O [iE-DAP] | 0.017 s⁻¹ | 158000 M⁻¹ s⁻¹ | – |
| NCCCC[C@H](NC(=O)CC[C@@H](N)C(=O)O)C(=O)O [iE-Lys] | 0.00956 s⁻¹ | 102000 M⁻¹ s⁻¹ | 7.03 |
